# Data reported in ChEMBL document CHEMBL1201862, “PubChem BioAssay data set” (2004).
# The source made the active and inactive calls.
# What was measured:
# [1] = system: Streptococcus sp. 'group A'; experiment: growth inhibition of control SK(-) GAS strain, dose response, counter-screen for streptokinase expression inhibitor project, luminescence, kanamycin, BacTiterGlo, confirmation (AID 1900); format: functional, organism-based
# [2] = cytotoxicity in COV362 ovarian cancer cells, dose response, cytotoxicity control for PAX8 inhibitor project, cell-based, plate reader, dry powder, SA12 (AID 743144); format: functional
# [3] = IOSE-T80 ovarian epithelial cell cytotoxicity, dose response, cytotoxicity control for PAX8 inhibitor project, plate reader, dry powder samples (AID 743045); format: functional, cell-based
# [4] = PAX2 cell-based inhibition, dose response, selectivity assay for PAX8 inhibitor project, plate reader, dry powder samples (AID 743048); format: functional;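 further: HEK293 cells carrying a WT1 promoter luciferase reporter driven by expressed Pax2; potency is for inhibition of Pax2 driven reporter signal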
# [5] = Luminescence-based dose response cell-based high throughput screening assay for cytotoxic compounds using the IEC-6 intestinal epithelial cell line. [Related pubchem assays: 1858 (Summary AID.), 1825 (Counterscreen.), 1907 (Confirmation screen.)]; format: functional
# Streptokinase A = target: T1, Streptokinase A (Streptococcus pyogenes serotype M1, UniProt P10520); experiment: S. pyogenes streptokinase expression inhibitors, potency, dose response, plasminogen activation absorbance, OD405 (AID 1914); format: functional, Streptococcus pyogenes M1 GAS;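 further: secreted streptokinase activity via plasminogen activation per viability signal from cell pellet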
# T1 sequence (P10520 whole entry): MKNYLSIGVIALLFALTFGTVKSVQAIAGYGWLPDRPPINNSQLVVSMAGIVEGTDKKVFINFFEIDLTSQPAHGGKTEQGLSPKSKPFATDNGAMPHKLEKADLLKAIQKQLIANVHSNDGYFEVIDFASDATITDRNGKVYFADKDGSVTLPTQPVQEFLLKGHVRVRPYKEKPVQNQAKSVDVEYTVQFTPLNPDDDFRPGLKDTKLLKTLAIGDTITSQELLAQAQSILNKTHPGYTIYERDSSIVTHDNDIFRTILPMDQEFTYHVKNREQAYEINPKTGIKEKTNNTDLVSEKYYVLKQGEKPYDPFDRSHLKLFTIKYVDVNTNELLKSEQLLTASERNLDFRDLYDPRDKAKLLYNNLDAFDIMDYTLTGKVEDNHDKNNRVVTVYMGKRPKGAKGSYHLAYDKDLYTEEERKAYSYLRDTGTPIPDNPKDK
# HEK293 [6] = experiment: cytotoxicity in HEK293T NF-kB-Luc cells, SAR follow-up, cytotoxicity control for NF-kB activator project, cell-based, resazurin fluorescence (AID 493251); format: functional; details: Homo sapiens
# [7] = non-specific cell cytotoxicity, dose response, cytotoxicity control for PAX8 inhibitor project, plate reader, dry powder samples (AID 743021); format: functional, cell-based
# BJ [8] = experiment: cytotoxicity toward Ras-transformed BJeLR fibroblasts, dose response, cell-based, alamar blue fluorescence, cherrypicked samples (AID 2631); format: functional; details: Homo sapiens;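 further: confirmatory dose-response assay in RAS-dependent BJ fibroblasts engineered with TERT, LT and ST, with cytotoxicity read by fluorescence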
# BJ [9] = experiment: cells; format: functional, cell-based; details: Homo sapiens
# [10] = cytotoxicity in OVCAR4 cells, dose response, cytotoxicity control for PAX8 inhibitor project, cell-based, plate reader, dry powder, SA11 (AID 743150); format: functional; details: OVCAR-4
# [11] = cytotoxicity toward DRD oncogenic fibroblasts, dose response, cell-based, non-viral oncogenic, luminescence (AID 1934); format: functional; details: Homo sapiens
# [12] = IGROV1 ovarian cancer cell cytotoxicity, dose response, PAX8 inhibitor project, plate reader, dry powder samples (AID 743043); format: functional, cell-based; details: IGROV-1
# [13] = cytotoxicity in OV-90 ovarian cancer cells, dose response, PAX8 inhibitor project, cell-based, plate reader, dry powder, SA8 (AID 743149); format: functional
# Beta-galactosidase = Beta-galactosidase (Escherichia coli, UniProt Q8VNN2); experiment: PubChem AID 485352; format: functional
# [14] = target: T2, Type-1 angiotensin II receptor (Homo sapiens, UniProt P30556); experiment: AT1 receptor antagonists, dose response, selectivity assay for APJ receptor antagonist project, cell-based, uHTS hits (AID 463214); format: functional;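 further: antagonist potency against angiotensin II stimulated AT1 response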
# T2 sequence (P30556 whole entry): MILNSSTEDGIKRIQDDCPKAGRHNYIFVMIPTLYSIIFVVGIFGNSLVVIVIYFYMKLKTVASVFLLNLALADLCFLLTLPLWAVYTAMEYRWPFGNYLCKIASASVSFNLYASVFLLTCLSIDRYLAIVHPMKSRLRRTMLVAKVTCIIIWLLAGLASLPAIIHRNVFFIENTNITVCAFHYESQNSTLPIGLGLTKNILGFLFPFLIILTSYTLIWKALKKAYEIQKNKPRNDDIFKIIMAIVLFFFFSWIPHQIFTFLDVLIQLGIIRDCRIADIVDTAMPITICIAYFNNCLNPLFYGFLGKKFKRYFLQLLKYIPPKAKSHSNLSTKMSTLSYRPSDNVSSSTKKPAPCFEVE
# BJ [15] = experiment: cytotoxicity toward BJ-TERT fibroblasts, dose response, cell-based, RAS-independent, luminescence (AID 1933); format: functional; details: Homo sapiens
# BJ [16] = experiment: cytotoxicity toward BJ-TERT-LT-ST fibroblasts, dose response, cell-based, RAS-independent, luminescence (AID 1935); format: functional; details: Homo sapiens;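 further: BJ fibroblasts immortalized with TERT plus LT and ST oncogenes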
# Streptococcus = experiment: Group A Streptococcus viability loss, dose response, counter-screen for streptokinase expression inhibitor project, luminescence, BacTiterGlo (AID 1915); format: functional, organism-based;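 further: potency for reduction of bacterial viability or growth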
# [17] = A2780 ovarian cancer cell cytotoxicity, dose response, cytotoxicity control, plate reader, dry powder samples (AID 743046); format: functional, cell-based
# Paired box protein Pax-8 = Paired box protein Pax-8 (Homo sapiens, UniProt Q06710); experiment: inhibitors of PAX8-driven TPO luciferase reporter, dose response, RMG-I cells, cherry-pick (AID 687027); format: functional, cell-based;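 further: luciferase reporter driven by Pax8 target thyroperoxidase promoter measured by SteadyGlo luminescence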
# [18] = cytotoxicity dependent on PAX8, dose response, cell-based, plate reader, dry powder (AID 743049); format: functional
# [19] = cytotoxicity in HEK-293T cells, dose response, cytotoxicity control for TCR NF-kB inhibitor project, luminescence, T-cell screen hits (AID 489026); format: functional, cell-based;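 further: cells exposed to compound about 14 hours before the viability readout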
# HEK293 [20] = experiment: SAR Analysis of small molecule inhibitors of both B-cell and T-cell specific antigen receptor-induced NF-kB activation in a HEK-293T cell line using a luminescence assay. [Related pubchem assays (depositor defined):AID435003, AID435022, AID465, AID489019, AID489029]; format: functional, cell-based; details: Homo sapiens
# Jurkat = experiment: SAR Analysis of small molecule inhibitors of both B-cell and T-cell specific antigen receptor-induced NF-kB activation in a Jurkat cell line using a luminescence assay. [Related pubchem assays (depositor defined):AID435003, AID435022, AID465, AID489029]; format: functional, cell-based; details: Homo sapiens
# [21] = cytotoxicity in COV434 cells, dose response, cytotoxicity control for PAX8 inhibitor project, cell-based, plate reader, dry powder, SA7 (AID 743145); format: functional
# [22] = target: Dual specificity protein kinase CLK1 (Homo sapiens, UniProt P49759); experiment: CLK1 kinase inhibitors, off-target check, dose response, selectivity assay for Dyrk1A inhibitor project, biochemical, cherry-picked samples (AID 588811)
# [23] = inhibitors of firefly luciferase expression or activity, dose response, H4 neuroglioma cells, luminescence (AID 1990); format: functional, cell-based
# [24] = cytotoxicity toward NIH3T3 fibroblasts, dose response, counter-screen, cell-based, ATP luminescence, mouse fibroblasts (AID 2010); format: functional;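 further: cells exposed to compound for about 90 hours before reading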
# DNA topoisomerase = DNA topoisomerase (Yersinia pestis, UniProt A0A2S9PM60); experiment: Y. pestis Topo-I inhibitors, cleavage product readout, dose response, biochemical, cherry-pick (AID 588525)
# [25] = inhibitors of intracellular T. cruzi replication, confirmation, NIH3T3 host cells, beta-gal luminescence (AID 2044); format: functional, cell-based;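 further: intracellular parasites grown in NIH/3T3 mouse fibroblasts as host cells; luminescent beta-galactosidase reporter signal from transgenic T. cruzi replicating inside host cells; inhibitors lower the luminescence signal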
# [26] = Luminescence Cell-Based Dose Response HTS to Identify Inhibitors of 5'UTR Stem-Loop Driven Prion Protein mRNA Translation in H4 Neuroglioblastoma Cells. [Related pubchem assays: 1827 (Project Summary), 1813 (Primary HTS)]; format: functional
# [27] = inhibitors of SNCA 5'UTR-driven reporter translation, confirmation, H4 neuroglioma cells, luminescence (AID 1988); format: functional, cell-based
# CAAX prenyl protease 2 [28] = target: CAAX prenyl protease 2 (Homo sapiens, UniProt Q9Y256); experiment: human Rce1 protease inhibitors, dose response, biochemical, plate reader, dry powder samples (AID 588848)
# CAAX prenyl protease 2 [29] = target: T3, CAAX prenyl protease 2 (Saccharomyces cerevisiae S288c, UniProt Q03530); format: biochemical
# T3 sequence (Q03530 whole entry): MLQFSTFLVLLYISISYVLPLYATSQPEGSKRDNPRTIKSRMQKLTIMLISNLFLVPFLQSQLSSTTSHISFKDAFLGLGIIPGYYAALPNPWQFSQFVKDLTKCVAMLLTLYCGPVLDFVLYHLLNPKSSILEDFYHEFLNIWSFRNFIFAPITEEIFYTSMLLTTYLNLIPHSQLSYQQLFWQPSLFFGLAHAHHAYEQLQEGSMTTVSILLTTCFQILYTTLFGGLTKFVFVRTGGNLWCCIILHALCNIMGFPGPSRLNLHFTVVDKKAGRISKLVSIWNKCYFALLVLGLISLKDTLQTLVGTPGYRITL
# CAAX prenyl protease 2 [30] = target: T3, CAAX prenyl protease 2; experiment: yeast Rce1 CaaX protease inhibitors, dose response, biochemical, plate reader, dry powder retest (AID 588851)
# [31] = target: T4, Beta-2 adrenergic receptor (Homo sapiens, UniProt P07550); experiment: beta2AR agonists driving receptor internalization, dose response, cell-based, FAP fluorogen, flow cytometry, cherry pick 1 (AID 588763); format: functional
# [32] = target: T4, Beta-2 adrenergic receptor; experiment: Dose response for HTS for Beta-2AR agonists via FAP method from Powderset1.; format: functional
# [33] = THP-1 cell cytotoxicity, cytotoxicity control, set 6 (AID 602433); format: functional; details: Mycobacterium tuberculosis
# [34] = C. albicans growth with fluconazole, confirmation, fluorescence, retest (AID 2467); format: functional, cell-based
# [35] = target: E3 ubiquitin-protein ligase XIAP (Homo sapiens, UniProt P98170); experiment: Counter Screen using XIAP-Bir3 for Chemical Antagonists of Bir1/2 domains of IAP-family anti-apoptotic proteins. [Related pubchem assays (depositor defined):AID1018, AID1449, AID1514, AID1638, AID1749, AID1750, AID488957, AID488963]
# Large T antigen = Large T antigen (Simian virus 40, UniProt P03070); format: functional, Betapolyomavirus macacae;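 further: Confirmatory-stage PubChem screen for compounds that inhibit SV40 T antigen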
# [36] = target: Beta-adrenergic receptor kinase 1 (Homo sapiens, UniProt P25098); experiment: aptamer displacement from bead-bound GRK2 – biochemical, cherry pick 1, bead flow cytometry, dose response (AID 504500)
# [37] = NIH-3T3 fibroblast cytotoxicity, dose response, cytotoxicity control, cell-based, fluorescence, Alamar Blue, secondary assay (AID 2327); format: functional;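 further: NIH-3T3 mouse fibroblasts cultured with fluconazole at 8 µg/mL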
# [38] = target: Aryl hydrocarbon receptor (Homo sapiens, UniProt P35869); details: Potency;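 further: confirmatory quantitative high-throughput screen measuring activation of the AhR signaling pathway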
# [39] = target: Voltage-gated inwardly rectifying potassium channel KCNH2 (Homo sapiens, UniProt Q12809); details: Potency;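 further: confirmatory quantitative high-throughput screen measuring inhibition of hERG channel activity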
# Chain of Voltage-gated inwardly rectifying potassium channel KCNH2 (Q12809 whole entry): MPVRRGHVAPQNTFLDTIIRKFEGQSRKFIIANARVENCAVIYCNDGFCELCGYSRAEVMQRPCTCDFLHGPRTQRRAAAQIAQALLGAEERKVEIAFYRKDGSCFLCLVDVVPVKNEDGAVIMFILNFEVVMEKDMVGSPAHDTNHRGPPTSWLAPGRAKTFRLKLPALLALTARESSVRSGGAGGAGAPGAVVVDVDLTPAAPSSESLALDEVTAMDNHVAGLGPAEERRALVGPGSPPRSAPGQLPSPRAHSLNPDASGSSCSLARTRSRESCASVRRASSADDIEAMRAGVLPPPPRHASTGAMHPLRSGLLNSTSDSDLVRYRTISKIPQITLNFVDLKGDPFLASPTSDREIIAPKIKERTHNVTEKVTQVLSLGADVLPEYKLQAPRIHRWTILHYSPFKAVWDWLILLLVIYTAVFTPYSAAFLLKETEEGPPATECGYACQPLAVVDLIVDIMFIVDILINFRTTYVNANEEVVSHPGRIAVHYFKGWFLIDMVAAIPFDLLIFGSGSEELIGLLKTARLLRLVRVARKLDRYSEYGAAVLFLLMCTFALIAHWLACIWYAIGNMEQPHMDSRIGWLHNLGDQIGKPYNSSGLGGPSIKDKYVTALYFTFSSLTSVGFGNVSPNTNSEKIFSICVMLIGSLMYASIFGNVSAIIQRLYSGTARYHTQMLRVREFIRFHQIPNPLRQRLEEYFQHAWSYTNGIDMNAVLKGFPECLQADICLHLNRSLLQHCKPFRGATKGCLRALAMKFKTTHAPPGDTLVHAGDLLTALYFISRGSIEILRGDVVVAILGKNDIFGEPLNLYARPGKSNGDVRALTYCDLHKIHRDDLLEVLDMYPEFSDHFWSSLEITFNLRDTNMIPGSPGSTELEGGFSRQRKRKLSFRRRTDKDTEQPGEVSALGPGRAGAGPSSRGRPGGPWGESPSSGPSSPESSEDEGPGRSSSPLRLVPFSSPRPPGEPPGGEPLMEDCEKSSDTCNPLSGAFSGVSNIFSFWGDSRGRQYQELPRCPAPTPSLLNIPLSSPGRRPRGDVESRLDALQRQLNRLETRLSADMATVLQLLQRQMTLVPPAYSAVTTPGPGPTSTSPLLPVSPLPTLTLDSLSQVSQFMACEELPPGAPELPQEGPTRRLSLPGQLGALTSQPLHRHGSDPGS
# T4 sequence (P07550 whole entry): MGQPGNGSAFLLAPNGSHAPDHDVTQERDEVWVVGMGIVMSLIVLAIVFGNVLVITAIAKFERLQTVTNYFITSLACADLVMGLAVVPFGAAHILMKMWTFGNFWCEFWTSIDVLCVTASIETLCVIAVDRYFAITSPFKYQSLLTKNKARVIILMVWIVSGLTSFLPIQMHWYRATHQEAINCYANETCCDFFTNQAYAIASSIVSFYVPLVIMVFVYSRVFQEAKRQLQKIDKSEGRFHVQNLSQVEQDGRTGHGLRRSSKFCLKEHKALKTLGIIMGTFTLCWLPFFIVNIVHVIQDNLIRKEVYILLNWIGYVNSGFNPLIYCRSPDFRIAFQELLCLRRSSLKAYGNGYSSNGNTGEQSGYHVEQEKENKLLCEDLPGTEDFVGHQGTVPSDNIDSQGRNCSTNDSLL
# Chain of Large T antigen (P03070 whole entry): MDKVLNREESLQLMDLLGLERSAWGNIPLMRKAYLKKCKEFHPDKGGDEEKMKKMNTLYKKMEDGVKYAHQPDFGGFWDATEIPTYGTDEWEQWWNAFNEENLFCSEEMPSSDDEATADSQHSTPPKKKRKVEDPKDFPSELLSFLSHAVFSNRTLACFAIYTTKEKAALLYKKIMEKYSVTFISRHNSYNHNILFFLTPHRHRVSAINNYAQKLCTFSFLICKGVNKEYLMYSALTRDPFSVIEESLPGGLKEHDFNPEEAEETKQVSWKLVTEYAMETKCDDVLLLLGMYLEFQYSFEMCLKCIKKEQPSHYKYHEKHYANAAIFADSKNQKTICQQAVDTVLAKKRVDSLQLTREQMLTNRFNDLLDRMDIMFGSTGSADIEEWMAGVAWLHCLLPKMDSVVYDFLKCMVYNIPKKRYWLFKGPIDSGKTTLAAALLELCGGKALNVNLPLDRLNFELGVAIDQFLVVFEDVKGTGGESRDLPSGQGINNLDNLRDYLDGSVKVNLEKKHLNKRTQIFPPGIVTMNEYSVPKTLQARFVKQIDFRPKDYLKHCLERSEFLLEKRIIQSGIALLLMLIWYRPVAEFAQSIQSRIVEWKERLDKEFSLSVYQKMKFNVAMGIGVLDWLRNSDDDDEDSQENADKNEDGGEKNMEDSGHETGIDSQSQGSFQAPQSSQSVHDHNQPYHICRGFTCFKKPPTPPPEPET
# Chain of Beta-adrenergic receptor kinase 1 (P25098 whole entry): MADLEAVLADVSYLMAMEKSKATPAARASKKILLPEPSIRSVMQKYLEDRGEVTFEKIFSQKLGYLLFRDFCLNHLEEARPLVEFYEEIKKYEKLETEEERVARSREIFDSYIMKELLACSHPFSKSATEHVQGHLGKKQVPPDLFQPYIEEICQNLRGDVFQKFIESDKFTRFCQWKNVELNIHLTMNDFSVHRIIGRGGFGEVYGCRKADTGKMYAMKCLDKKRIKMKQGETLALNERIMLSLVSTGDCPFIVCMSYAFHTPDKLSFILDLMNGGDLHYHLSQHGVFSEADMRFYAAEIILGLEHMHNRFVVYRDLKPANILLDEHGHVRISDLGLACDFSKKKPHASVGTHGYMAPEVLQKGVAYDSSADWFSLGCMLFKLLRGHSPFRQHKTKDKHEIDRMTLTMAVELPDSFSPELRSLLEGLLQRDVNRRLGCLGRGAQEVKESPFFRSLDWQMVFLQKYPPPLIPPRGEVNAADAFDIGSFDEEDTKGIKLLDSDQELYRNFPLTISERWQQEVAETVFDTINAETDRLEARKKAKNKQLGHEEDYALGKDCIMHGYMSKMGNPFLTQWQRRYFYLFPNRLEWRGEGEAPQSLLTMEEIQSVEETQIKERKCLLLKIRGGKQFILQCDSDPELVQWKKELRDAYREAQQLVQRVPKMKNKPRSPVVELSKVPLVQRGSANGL
# Chain of E3 ubiquitin-protein ligase XIAP (P98170 whole entry): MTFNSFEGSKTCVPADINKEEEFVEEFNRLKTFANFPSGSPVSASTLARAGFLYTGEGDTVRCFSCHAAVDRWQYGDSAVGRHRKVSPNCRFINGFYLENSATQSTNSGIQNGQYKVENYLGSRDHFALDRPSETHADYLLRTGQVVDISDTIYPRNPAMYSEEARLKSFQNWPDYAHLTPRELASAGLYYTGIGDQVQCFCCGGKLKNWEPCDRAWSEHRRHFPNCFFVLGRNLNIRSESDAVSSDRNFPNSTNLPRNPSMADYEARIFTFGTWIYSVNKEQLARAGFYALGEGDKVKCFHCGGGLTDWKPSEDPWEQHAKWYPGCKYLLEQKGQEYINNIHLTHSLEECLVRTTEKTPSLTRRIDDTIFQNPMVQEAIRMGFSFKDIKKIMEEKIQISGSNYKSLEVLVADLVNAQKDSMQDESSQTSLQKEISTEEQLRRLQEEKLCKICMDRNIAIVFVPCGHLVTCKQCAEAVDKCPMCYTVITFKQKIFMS
# Chain of DNA topoisomerase (A0A2S9PM60 whole entry): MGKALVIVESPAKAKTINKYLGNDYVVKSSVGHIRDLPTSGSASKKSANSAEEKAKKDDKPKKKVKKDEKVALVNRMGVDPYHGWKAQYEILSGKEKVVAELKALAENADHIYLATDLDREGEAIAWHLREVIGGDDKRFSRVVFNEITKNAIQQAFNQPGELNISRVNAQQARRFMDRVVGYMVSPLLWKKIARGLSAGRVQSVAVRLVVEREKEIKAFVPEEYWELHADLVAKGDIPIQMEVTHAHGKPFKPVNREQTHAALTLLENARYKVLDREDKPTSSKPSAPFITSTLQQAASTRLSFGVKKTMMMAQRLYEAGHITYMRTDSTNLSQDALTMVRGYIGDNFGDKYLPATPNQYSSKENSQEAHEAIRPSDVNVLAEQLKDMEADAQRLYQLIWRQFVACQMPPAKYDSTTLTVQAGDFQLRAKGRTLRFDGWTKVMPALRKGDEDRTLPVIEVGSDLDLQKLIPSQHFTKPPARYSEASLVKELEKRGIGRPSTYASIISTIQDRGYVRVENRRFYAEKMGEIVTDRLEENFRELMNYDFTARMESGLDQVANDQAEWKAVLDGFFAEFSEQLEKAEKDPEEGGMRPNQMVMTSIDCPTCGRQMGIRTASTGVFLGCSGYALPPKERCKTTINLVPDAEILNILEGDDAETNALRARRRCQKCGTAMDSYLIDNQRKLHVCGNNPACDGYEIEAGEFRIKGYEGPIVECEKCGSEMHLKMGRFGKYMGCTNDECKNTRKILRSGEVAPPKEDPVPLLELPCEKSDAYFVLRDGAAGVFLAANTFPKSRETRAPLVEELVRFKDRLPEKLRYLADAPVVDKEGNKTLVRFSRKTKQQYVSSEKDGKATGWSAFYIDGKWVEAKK
# Chain of CAAX prenyl protease 2 (Homo sapiens, UniProt Q9Y256) (Q9Y256 whole entry): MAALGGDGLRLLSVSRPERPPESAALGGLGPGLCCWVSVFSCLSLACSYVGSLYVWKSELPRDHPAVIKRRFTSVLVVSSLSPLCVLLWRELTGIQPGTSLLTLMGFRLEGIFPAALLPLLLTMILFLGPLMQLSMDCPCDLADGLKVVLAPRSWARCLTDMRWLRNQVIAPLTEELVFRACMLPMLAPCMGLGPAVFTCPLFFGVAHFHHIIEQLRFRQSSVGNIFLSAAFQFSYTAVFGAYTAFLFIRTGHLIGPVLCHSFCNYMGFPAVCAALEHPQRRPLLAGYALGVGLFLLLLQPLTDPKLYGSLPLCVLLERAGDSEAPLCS
structure (smiles),measurement,setting,value
Cc1ccc2cccc(NS(=O)(=O)c3ccccc3)c2n1,EC50,[1],5.1 µM (active)
same,AC50,[2],8.75 µM (active)
same,AC50,[3],17.3 µM (active)
same,AC50,[4],49.5 µM (active)
same,IC50,[5],0.589 µM (active)
same,EC50,Streptokinase A,> 150 µM (not active)
same,IC50,HEK293 [6],> 80 µM (inactive)
same,AC50,[7],44 µM (active)
same,EC50,BJ [8],5.74 µM (active)
same,EC50,BJ [9],17.8 µM (active)
same,AC50,[10],21.1 µM (active)
same,EC50,[11],21.6 µM (active)
same,AC50,[12],14 µM (active)
same,AC50,[13],5.65 µM (active)
same,EC50,Beta-galactosidase,> 40 µM (inactive)
same,IC50,[14],2.35 µM (active)
same,EC50,BJ [15],37.9 µM (active)
same,EC50,BJ [16],> 150 µM (not active)
same,EC50,Streptococcus,> 150 µM (not active)
same,AC50,[17],20.5 µM (active)
same,AC50,Paired box protein Pax-8,5.74 µM (active)
same,AC50,[18],15.6 µM (active)
same,IC50,[19],> 80 µM (inactive)
same,IC50,HEK293 [20],> 79 µM (inactive)
same,IC50,Jurkat,1.21 µM (active)
same,AC50,[21],10.7 µM (active)
CN(C)c1ccc(-c2nccc(NCc3cccs3)n2)cc1,AC50,[22],0.265 µM (active)
O=C(CSc1nnc(COc2ccc(Cl)cc2)o1)N1c2ccccc2CCc2ccccc21,EC50,[23],23.5 µM (active)
same,EC50,[24],< 6 µM (inconclusive)
same,AC50,DNA topoisomerase,10.2 µM (active)
same,EC50,[25],0.625 µM (active)
same,EC50,[26],21.5 µM (active)
same,EC50,[27],15.2 µM (active)
CC(C)c1c(C(=O)N/N=C/c2c[nH]c3ccccc23)nnn1-c1nonc1N,AC50,CAAX prenyl protease 2 [28],29.3 µM (active)
same,AC50,CAAX prenyl protease 2 [29],0.298 µM (active)
same,AC50,CAAX prenyl protease 2 [30],3.14 µM (active)
CSc1ccc(CN2CCC(Oc3ccc(C(=O)N4CCCC4)cc3)CC2)cc1,EC50,[31],1.39 µM (active)
same,EC50,[32],0.348 µM (active)
O=C(CSc1nc2ccccc2c(=O)[nH]1)NC1CCOCC1,CC50,[33],> 100 µM (inconclusive)
O=S(=O)(O)c1cc(O)c2c(O)c(N=Nc3cc(Cl)ccc3O)c(S(=O)(=O)O)cc2c1,EC50,[34],> 38 µM (not active)
same,EC50,[23],13.1 µM (active)
same,IC50,[35],> 20 µM (inactive)
same,IC50,Large T antigen,13.4 µM (active)
same,EC50,[36],16.3 µM (inactive)
same,EC50,[27],14.8 µM (active)
same,EC50,[37],> 150 µM (inactive)
COP(=S)(OC)Oc1ccc(SC)c(C)c1 [FENTHION],AC50,[38],50.1 µM (inconclusive)
same,AC50,[39],22.4 µM (inconclusive)
